Where a SMILES comes first, the peptide text is derived from it. Bridges are numbered along the chain shown (N, C = ends). [ ]: non-standard residue; d: D form. The star is where a group is joined. X1 = CC[C@H](C)CCCCC(=O)*; Dab = NCC[C@H](N)C(=O)O
Key:
A. baumannii ATCC 19606 = assay: Skin abscess infection mouse model; assay type: in vivo; details: CD-1 mice, n=3
Procedure: Figure 7. Anti-infective activity of AMPs in pre-clinical animal model. (A) Schematic of the skin abscess mouse model used to assess the anti-infective activity of the peptides against A. baumannii cells. (B) Peptides were tested at their MIC in a single dose one hour after the establishment of the infection. Each group consisted of three mice n=3 and the bacterial loads used to infect each mouse derived from a different inoculum. (C) To rule out toxic effects of the peptides, mouse weight was monitored throughout the experiment. Statistical significance in (B) was determined using one-way ANOVA where all groups were compared to the untreated control group; P-values are shown for each of the groups. Features on the violin plots represent median and upper and lower quartiles. Data in (C) are the mean ± the standard deviation. Figure created in BioRender.com. […]
To assess the anti-infective efficacy of the peptides against A. baumannii ATCC 19606 in a skin abscess infection mouse model, the bacteria were cultured in tryptic soy broth (TSB) medium until an OD600 of 0.5 was reached. […] The animals were euthanized two- and four-days post-infection, and the infected area was extracted and homogenized for 20 min using a bead beater (25 Hz) and 10-fold serially diluted for CFU quantification on MacConkey agar plates for easy differentiation of A. baumannii colonies. […]

[1] = test system: Acinetobacter baumannii ATCC 19606; details: broth microdilution, LB broth, 24 h at 37 °C, two-fold dilutions 64 to 1 μmol·L^−1, absorbance 600 nm, mode of three independent replicates
Procedure: Amino acid composition, structure, antimicrobial activity, and mechanism of action of c_AMPs. […] (AC) Activity of c_AMPs assessed against ESKAPEE pathogens and human gut commensal strains. Briefly, 10^6 CFU·mL^−1 was exposed to c_AMPs two-fold serially diluted ranging from 64 to 1 μmol·L^−1 in 96-wells plates and incubated at 37 °C for one day. After the exposure period, the absorbance of each well was measured at 600 nm. Untreated solutions were used as controls and minimal concentration values for complete inhibition were presented as a heat map of antimicrobial activities (μmol·L^−1) against 11 pathogenic and eight human gut commensal bacterial strains.

With `CC[C@H](C)CCCCC(=O)N[C@@H](CCN)C(=O)N[C@H](C(=O)N[C@@H](CCN)C(=O)N[C@H]1CCNC(=O)[C@H]([C@@H](C)O)NC(=O)[C@H](CCN)NC(=O)[C@H](CCN)NC(=O)[C@H](CC(C)C)NC(=O)[C@@H](Cc2ccccc2)NC(=O)[C@H](CCN)NC1=O)[C@@H](C)O` [polymyxin B] (X1-[Dab]T[Dab][Dab][Dab][dF]L[Dab][Dab]T; lactam 4-C (inferred); N-terminus assumed) the “Kind of anti-infective activity against A. baumannii in skin abscess” value (A. baumannii ATCC 19606; single dose at MIC on the infected area, two days post-infection) was “bactericidal activity”, the “Reduction of CFU counts compared to the untreated control” value (A. baumannii ATCC 19606; skin abscess, A. baumannii, single dose at MIC, four days post-infection) was 1–2 orders of magnitude and the “Minimal Inhibitory Concentration, A. baumannii ATCC 19606” value [1] was 0.25 µmol/L.
